The values that follow come from publication PMC4648050, “Discovery of Inhibitors of Trypanosoma brucei by Phenotypic Screening of a Focused Protein Kinase Library” (Chemmedchem, 2015).

Holding throughout (assay type): biochemical, human/mammalian
What all share (conditions): compound at 10 μM, read-out: % of activity respect of the control

In one assay the target is PRK2 (Homo sapiens, UniProt Q16513). The assay is described as follows: Kinase panel: PRK2. The procedure:
(§1) The DDU kinase-focused compound set contains lead-like scaffolds that are designed to target protein kinases; they have kinase hinge binding motifs. Four of the 1H-imidazopyrazinones were screened against a human/mammalian kinase panel at the University of Dundee (http://www.kinase-screen.mrc.ac.uk) at a concentration of 10 μM. At the time of testing the panel contained 79 mammalian kinases selected to provide a broad coverage of the mammalian kinome (∼500 kinases in the human genome).[3] None of the compounds were active against any of the kinases at 10 μM.

The target in a further assay is PAK6 (Homo sapiens, UniProt Q9NQU5). The assay is described as follows: Kinase panel: PAK6. The procedure:
as §1

The target of another assay is MNK1 (Homo sapiens, UniProt Q9BUB5). The assay is described as follows: Kinase panel: MNK1. The procedure: as §1
The next assay has as its target T1, IKKe (Homo sapiens, UniProt Q14164).
T1 sequence (Q14164 1-716): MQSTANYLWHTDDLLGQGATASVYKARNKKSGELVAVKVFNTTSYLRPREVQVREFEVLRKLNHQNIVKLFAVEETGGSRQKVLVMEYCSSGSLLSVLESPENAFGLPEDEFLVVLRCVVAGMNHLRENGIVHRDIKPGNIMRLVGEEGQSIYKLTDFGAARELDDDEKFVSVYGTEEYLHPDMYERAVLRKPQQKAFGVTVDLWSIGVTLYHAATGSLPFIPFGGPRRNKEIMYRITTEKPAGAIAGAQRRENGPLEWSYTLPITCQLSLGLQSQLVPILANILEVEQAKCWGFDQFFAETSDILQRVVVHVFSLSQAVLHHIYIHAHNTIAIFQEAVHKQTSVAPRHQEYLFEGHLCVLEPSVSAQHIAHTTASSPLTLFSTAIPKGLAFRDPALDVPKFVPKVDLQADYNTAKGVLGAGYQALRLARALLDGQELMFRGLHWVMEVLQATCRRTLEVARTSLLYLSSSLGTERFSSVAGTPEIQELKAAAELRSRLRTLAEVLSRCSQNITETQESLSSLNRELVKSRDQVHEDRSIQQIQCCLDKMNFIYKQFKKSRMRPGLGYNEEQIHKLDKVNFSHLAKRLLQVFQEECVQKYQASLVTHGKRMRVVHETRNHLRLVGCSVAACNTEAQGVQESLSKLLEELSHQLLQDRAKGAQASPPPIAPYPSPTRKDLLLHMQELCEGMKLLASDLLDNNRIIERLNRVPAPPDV
As to the kind of experiment: Kinase panel: IKKe. The procedure: as §1

Another assay concerns the target PIM2 (Homo sapiens, UniProt Q9P1W9). The assay is described as follows: Kinase panel: PIM2. The procedure:
as §1

The target in a further assay is RSK2 (Homo sapiens, UniProt P51812). The assay is described as follows: Kinase panel: RSK2. The procedure:
as §1

The target in another assay is SmMLCK (Homo sapiens, UniProt Q15746). The assay is described as follows: Kinase panel: SmMLCK. The procedure: as §1
The target in a further assay is T2, BRSK2 (Homo sapiens, UniProt Q8IWQ3).
T2 sequence (Q8IWQ3 1-736): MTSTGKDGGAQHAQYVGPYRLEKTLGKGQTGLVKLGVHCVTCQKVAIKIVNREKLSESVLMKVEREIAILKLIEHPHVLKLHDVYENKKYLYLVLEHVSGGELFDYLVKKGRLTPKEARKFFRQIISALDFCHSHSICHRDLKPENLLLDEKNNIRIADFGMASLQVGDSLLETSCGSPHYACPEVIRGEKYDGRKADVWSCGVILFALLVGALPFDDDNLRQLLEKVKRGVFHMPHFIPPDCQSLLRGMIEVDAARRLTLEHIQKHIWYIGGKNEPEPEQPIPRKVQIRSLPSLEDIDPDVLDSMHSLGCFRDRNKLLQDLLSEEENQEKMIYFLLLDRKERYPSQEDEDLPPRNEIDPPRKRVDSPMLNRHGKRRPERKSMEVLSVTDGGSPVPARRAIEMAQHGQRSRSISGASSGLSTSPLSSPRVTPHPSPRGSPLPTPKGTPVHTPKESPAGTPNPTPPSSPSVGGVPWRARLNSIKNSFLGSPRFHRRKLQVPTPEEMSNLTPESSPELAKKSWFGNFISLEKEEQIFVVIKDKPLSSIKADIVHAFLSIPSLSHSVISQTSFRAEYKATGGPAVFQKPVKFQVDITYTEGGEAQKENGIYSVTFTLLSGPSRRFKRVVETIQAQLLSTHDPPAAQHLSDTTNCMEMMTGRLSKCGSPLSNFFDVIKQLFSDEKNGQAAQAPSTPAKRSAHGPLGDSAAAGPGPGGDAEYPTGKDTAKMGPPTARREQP
The assay is described as follows: Kinase panel: BRSK2. The procedure:
as §1

Another assay deals with SRPK1 (Homo sapiens, UniProt Q96SB4). The assay is described as follows: Kinase panel: SRPK1. The procedure: as §1
A further assay concerns the target T3, SGK1 (Homo sapiens, UniProt O00141).
T3 sequence (O00141 1-431): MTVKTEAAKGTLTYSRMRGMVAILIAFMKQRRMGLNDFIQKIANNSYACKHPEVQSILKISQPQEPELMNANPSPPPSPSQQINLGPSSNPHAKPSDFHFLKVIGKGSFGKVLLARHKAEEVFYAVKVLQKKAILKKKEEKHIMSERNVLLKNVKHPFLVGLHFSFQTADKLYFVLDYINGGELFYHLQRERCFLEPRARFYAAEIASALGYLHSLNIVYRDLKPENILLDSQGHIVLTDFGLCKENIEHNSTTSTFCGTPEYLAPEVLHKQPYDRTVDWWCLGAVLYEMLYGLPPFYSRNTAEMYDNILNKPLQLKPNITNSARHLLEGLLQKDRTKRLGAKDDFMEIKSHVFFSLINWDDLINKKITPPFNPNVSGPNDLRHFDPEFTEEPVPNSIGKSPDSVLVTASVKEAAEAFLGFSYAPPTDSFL
As to the kind of experiment: Kinase panel: SGK1. The procedure: as §1

Sequence of PAK6 (Q9NQU5 whole entry): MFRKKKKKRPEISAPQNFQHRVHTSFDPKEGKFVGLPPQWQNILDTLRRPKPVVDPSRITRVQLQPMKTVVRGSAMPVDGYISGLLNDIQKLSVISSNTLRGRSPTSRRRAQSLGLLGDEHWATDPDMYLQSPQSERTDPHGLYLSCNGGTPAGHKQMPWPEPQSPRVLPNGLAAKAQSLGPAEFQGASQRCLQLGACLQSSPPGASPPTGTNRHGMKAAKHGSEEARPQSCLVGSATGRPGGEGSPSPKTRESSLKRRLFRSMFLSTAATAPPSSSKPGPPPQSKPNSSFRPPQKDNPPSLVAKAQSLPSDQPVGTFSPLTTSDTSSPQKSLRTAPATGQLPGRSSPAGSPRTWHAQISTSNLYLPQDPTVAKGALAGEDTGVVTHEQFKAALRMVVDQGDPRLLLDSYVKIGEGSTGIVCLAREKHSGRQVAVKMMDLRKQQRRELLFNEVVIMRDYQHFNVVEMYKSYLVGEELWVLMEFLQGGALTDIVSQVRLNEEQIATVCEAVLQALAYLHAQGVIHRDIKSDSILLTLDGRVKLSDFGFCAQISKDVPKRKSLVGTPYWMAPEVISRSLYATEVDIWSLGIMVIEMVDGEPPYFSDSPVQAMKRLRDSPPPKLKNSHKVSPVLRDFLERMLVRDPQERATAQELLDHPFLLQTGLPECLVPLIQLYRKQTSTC
Sequence of MNK1 (Q9BUB5 whole entry): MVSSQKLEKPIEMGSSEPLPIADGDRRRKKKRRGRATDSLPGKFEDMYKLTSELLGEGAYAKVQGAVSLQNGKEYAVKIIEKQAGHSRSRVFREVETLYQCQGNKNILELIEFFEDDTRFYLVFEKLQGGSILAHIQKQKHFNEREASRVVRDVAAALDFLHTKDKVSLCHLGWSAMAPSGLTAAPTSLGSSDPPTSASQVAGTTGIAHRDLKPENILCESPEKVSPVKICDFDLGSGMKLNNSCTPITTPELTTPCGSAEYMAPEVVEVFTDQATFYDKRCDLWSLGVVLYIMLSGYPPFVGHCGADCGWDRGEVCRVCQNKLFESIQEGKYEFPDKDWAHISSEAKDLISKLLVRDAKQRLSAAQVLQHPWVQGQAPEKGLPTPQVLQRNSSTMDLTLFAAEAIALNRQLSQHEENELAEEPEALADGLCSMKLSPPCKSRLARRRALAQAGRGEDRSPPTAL
Sequence of SRPK1 (Q96SB4 whole entry): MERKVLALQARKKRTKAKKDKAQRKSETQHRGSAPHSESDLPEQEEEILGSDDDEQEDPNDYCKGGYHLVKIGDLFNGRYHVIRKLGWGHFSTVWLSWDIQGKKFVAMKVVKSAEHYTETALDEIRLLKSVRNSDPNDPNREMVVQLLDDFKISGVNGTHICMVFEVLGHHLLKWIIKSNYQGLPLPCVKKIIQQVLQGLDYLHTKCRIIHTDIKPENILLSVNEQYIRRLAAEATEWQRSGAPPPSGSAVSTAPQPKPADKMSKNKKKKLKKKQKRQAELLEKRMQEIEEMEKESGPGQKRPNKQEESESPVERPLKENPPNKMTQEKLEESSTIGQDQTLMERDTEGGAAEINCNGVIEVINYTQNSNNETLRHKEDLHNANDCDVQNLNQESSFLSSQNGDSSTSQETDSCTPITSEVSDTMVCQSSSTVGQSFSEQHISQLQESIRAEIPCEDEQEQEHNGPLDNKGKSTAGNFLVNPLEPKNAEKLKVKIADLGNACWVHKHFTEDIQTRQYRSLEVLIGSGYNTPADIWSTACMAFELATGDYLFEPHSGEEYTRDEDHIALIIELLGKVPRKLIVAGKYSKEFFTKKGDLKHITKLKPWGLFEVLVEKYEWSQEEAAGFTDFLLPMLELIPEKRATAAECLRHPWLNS
Sequence of PIM2 (Q9P1W9 whole entry): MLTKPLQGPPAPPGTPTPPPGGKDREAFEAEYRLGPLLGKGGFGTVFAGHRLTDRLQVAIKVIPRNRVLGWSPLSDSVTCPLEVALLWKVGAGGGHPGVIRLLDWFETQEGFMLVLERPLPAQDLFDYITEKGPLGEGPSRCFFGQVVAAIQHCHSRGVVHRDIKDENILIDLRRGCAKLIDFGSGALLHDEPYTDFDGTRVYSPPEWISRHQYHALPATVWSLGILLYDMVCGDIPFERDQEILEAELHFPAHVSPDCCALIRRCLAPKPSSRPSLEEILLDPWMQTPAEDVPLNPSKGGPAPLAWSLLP
Sequence of RSK2 (P51812 whole entry): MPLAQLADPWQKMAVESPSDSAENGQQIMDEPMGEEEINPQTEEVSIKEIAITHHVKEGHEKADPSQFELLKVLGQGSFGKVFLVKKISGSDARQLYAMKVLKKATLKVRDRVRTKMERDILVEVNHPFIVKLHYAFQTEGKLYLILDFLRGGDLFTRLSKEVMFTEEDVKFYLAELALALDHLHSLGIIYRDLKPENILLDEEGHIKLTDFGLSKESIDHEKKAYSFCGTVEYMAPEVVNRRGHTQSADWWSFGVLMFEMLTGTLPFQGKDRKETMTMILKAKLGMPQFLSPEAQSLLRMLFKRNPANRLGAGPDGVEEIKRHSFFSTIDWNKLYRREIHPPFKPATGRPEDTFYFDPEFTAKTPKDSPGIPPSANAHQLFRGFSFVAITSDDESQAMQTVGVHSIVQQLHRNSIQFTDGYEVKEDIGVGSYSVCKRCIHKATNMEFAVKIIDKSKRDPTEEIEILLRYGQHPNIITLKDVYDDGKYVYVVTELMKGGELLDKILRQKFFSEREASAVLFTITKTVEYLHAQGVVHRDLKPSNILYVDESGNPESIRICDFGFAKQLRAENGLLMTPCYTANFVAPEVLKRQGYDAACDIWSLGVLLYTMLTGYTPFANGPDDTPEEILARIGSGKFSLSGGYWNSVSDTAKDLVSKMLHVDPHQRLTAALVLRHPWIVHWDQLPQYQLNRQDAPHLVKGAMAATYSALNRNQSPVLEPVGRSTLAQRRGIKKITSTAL
Sequence of PRK2 (Q16513 whole entry): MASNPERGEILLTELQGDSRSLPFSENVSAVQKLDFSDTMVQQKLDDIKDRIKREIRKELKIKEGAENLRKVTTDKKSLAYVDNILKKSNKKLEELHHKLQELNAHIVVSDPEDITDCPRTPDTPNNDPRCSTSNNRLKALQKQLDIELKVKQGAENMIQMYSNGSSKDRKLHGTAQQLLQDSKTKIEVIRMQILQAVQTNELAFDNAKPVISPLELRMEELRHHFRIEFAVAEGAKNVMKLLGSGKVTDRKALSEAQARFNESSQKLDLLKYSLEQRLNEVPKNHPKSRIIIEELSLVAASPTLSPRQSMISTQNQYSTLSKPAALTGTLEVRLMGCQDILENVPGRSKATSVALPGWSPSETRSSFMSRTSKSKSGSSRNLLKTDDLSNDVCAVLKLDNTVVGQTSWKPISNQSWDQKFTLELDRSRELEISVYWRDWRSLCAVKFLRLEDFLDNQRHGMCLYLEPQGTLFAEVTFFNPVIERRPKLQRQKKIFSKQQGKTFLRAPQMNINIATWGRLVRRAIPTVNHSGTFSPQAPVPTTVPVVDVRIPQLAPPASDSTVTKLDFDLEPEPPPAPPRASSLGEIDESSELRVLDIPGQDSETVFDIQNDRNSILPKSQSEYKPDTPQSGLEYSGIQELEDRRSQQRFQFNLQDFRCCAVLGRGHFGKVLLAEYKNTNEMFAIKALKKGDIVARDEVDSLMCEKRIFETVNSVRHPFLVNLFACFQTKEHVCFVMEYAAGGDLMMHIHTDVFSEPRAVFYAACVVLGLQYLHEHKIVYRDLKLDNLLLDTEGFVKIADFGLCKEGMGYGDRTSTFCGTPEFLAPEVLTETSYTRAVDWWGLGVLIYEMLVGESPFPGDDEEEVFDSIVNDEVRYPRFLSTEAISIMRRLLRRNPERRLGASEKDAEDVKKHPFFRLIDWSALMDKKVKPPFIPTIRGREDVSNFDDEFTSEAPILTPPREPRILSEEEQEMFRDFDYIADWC
Sequence of SmMLCK (Q15746 923-1914): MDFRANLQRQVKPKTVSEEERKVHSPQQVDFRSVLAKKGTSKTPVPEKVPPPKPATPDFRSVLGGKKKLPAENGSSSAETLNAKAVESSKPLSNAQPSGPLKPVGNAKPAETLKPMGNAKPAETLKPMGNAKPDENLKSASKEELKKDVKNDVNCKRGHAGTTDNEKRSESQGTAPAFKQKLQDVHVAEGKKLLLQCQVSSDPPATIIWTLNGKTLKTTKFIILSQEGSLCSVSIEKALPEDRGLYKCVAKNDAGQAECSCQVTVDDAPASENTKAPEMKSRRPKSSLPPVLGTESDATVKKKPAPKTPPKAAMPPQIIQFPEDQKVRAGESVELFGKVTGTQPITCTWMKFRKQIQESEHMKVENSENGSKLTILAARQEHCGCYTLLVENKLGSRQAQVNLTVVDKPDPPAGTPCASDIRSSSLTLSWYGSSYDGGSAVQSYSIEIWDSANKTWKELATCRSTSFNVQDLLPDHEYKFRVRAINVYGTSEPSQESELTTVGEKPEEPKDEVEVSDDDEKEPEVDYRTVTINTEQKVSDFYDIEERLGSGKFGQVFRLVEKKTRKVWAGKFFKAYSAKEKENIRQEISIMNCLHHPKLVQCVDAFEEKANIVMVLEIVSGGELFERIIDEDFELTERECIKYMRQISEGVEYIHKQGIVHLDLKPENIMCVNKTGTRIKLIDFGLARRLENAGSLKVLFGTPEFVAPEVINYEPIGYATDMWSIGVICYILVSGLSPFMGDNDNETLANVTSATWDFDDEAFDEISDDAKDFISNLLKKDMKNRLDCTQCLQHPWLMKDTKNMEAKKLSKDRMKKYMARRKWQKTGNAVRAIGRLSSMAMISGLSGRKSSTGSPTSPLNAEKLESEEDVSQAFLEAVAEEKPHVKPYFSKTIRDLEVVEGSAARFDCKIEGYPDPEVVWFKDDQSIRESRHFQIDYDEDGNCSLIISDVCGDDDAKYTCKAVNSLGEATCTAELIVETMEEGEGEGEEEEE

With `CC(c1ccccc1)n1c(=O)[nH]c2ncc(-c3ccc(F)cc3)nc21` (stereo not shown) [Compound 1], the remaining activity at 10 µM on PRK2 is 111%; on PAK6, 89%; on MNK1 it was 83%; on IKKe, 106%; on PIM2, 113%; on RSK2 it was 110%. Besides, the remaining activity at 10 µM on SmMLCK turned out to be 80%; on BRSK2, 82%; on SRPK1, 80%; at SGK1, 104%.
As to `O=c1[nH]c2ncc(-c3ccc(F)cc3)nc2n1CC1CC1` [Compound 10], the remaining activity at 10 µM on PRK2 was 99%; at PAK6, 98%; at MNK1, 93%; on IKKe it was 94%; on PIM2, 111%; on RSK2, 113%. Further, the remaining activity at 10 µM on SmMLCK was found to be 74%; at BRSK2 it was 90%; on SRPK1, 89%; at SGK1, 110%.
Regarding `O=c1[nH]c2ncc(-c3ccc(F)cc3)nc2n1C1CCCCC1` [Compound 12, 1-Cyclohexyl-6-(4-fluorophenyl)-1H-imidazo[4,5-b]pyrazin-2(3H)-one], the remaining activity at 10 µM at PRK2 amounted to 112%; on PAK6, 106%; at MNK1, 93%; on IKKe, 88%; at PIM2 it was 111%; at RSK2 it was 104%. For the same molecule, the remaining activity at 10 µM on SmMLCK was 89%; at BRSK2, 100%; on SRPK1, 88%; on SGK1, 111%.
`C[C@H](c1ccccc1)n1c(=O)[nH]c2ncc(-c3ccccc3)nc21` [Compound 14, (R)-6-Phenyl-1-(1-phenylethyl)-1H-imidazo[4,5-b]pyrazin-2(3H)-one]: the remaining activity at 10 µM at PRK2 is 97%; at PAK6 it was 88%; on MNK1, 76%; on IKKe, 91%; at PIM2, 96%; on RSK2 it was 101%. The remaining activity at 10 µM on SmMLCK was determined as 64%; on BRSK2, 72%; on SRPK1, 75%; on SGK1, 98%.
